Test results: paper PMC4997874 (Antimicrobial Agents and Chemotherapy, 2016)
Several values for one entry are separate records, joined by “and”; a condition that tells them apart may be missing. Equal entries are not always repeated. Structures can show the parent of a compound that is named as a salt. Marks after values point to notes of the source that are not given here.

Key:
[1] = test system: PrP^Sc accumulation in persistently infected hTERT-ovine microglia; assay type: cell-based; settings: for EC50: read-out: TC-EC50 (50% tissue culture effective concentration)
[2] = test system: PrP^Sc-positive hTERT-ovine microglia; assay: cells; assay type: cell-based; settings: for activity at 1 µM: Ovis aries, Microglia, 96 h, read-out: % BrdU incorporation
[3] = test system: PrP^Sc-positive hTERT-ovine microglia; assay: cells; assay type: cell-based; settings: Ovis aries, 96 h, read-out: % cell count
[4] = in vitro; settings: sheep; for viability at 1 µM: % cell viability
[5] = target: PrP^Sc in scrapie-positive sheep brain homogenate (Ovis aries, UniProt P23907); assay type: biochemical
[6] = test system: PrP^Sc accumulation in scrapie-infected primary ovine microglia; settings: cited from earlier work
[7] = test system: total PrP^C in PrP^Sc-negative hTERT-ovine microglia; assay type: cell-based
[8] = test system: PRNP transcripts in PrP^Sc-negative hTERT-ovine microglia; assay type: cell-based
[9] = test system: PrP^Sc-positive hTERT-ovine microglia

Sequence of PrP^Sc in scrapie-positive sheep brain homogenate (P23907 25-233 limits assumed): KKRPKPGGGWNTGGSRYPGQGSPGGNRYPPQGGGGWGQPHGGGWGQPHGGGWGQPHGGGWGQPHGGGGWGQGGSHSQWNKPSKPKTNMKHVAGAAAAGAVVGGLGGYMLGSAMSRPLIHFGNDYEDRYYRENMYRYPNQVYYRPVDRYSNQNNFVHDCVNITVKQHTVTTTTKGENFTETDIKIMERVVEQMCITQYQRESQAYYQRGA

SMILES | % reduction in PrP^Sc [1] | EC50 [1] | activity at 1 µM [2] | viability at 1 µM [3] | CC50 [4] | viability at 1 µM [4] | other results
N=C(N)c1ccc2nc(-c3ccc(-c4ccc(OCc5cn(CCc6cccc7ccccc67)nn5)cc4)s3)[nH]c2c1 [DB2228] | 63^f % | 200 ± 80 nM | 92% | 82% | > 3.16 µM | 120% | Selectivity index (CC50/TC-EC50) [1]: >15.8^e; Effect on cell proliferation (BrdU) over the 4-day treatment period [2]: significant effect on cell proliferation was not detected
c1cc(-c2ccc(-c3nc4ccc(C5=NCCN5)cc4[nH]3)o2)ccc1C1=NCCN1 [DB302] | 19% |  |  |  |  | 205% | 
N=C(N)c1ccc2nc(-c3cccc(-c4nc5ccc(C(=N)N)cc5[nH]4)n3)[nH]c2c1 [DB205] | 52^d % |  |  |  |  | 127% | 
N=C(N)c1ccc(-c2ccc(-c3ccc(-c4nc5ccc(C(=N)N)cc5[nH]4)cc3)s2)cc1 [DB2214] | 69^f % | 260 ± 140 nM | 68% | 84% | > 3.16 µM | 180% | 
N=C(N)c1ccc(-c2ccc(-c3cnc4ccc(C(=N)N)cc4c3)s2)cc1 [DB1504] |  | 390 ± 110 nM | 100% | 102% | > 3.16 µM | 156% | Selectivity index (CC50/TC-EC50) [1]: >8.1^e; Effect on cell proliferation (BrdU) over the 4-day treatment period [2]: significant effect on cell proliferation was not detected
N=C(N)c1ccc2nc(-c3ccc(-c4ccc(C(N)=O)cc4)o3)[nH]c2c1 [DB1932] | 24% |  |  |  |  | 120% | 
N=C(N)c1ccc2nc(-c3ccc(-c4ccc(C(N)=O)cc4)s3)[nH]c2c1 [DB1933] | 39% |  |  |  |  | 127% | 
N=C(N)c1ccc2nc(-c3ccc(NC(=O)Nc4ccc(-c5nc6ccc(C(=N)N)cc6[nH]5)cc4)cc3)[nH]c2c1 [DB2265] | 28% |  |  |  |  | 105% | 
COc1ccc(-c2ccc(-c3nc4ccc(C(=N)N)cc4[nH]3)s2)cc1 [DB2263] | 46^f % |  |  |  |  | 108% | 
Nc1cccc(-c2ccc(-c3nc4ccc(C5=NCCN5)cc4[nH]3)o2)c1 [DB900] | −5% |  |  |  |  | 125% | 
N=C(N)c1ccc2nc(-c3ccc(-c4nc5ccc(C(=N)N)cc5[nH]4)[se]3)[nH]c2c1 [DB1310] | 77% and 77^d % | 410 ± 80 nM | 91% | 92% | > 3.16 µM | 110% | Selectivity index (CC50/TC-EC50) [1]: >7.7^e; Effect on cell proliferation (BrdU) over the 4-day treatment period [2]: significant effect on cell proliferation was not detected
N=C(N)c1ccc2nc(-c3ccc(-c4cccc(-c5ccc(-c6nc7ccc(C(=N)N)cc7[nH]6)o5)c4)o3)[nH]c2c1 [DB2147] | 37% |  |  |  |  | 90% | 
N=C(N)c1ccc2nc(-c3ccc(-c4ccc([N+](=O)[O-])cc4)o3)[nH]c2c1 [DB472] | 11% |  |  |  |  | 120% | 
N=C(N)c1ccc2nc(-c3ccc(-c4nc5ccc(C(=N)N)cc5[nH]4)[nH]3)[nH]c2c1 [DB192] | 61^d % | 910 ± 80 nM | 101% | 98% | > 3.16 µM | 150% | Selectivity index (CC50/TC-EC50) [1]: >3.5^e; Effect on cell proliferation (BrdU) over the 4-day treatment period [2]: significant effect on cell proliferation was not detected
N=C(N)c1ccc(-c2ccc(-c3nc4ccccc4[nH]3)o2)cc1 [DB771] | 27% |  |  |  |  | 98% | Stabilization of PrP^Sc against PK digestion [5]: significant stabilization of PrP^Sc was not detected
Cn1c(-c2ccc(-c3ccc(C4=NCCN4)cc3)o2)nc2ccccc21 [DB948] | 83% and 83^f % | 430 ± 150 nM |  | 68% | 1.5 ± 0.5 µM | 60% | 
N=C(N)c1ccc2nc(-c3ccc(-c4ccc(-c5nc6ccc(C(=N)N)cc6[nH]5)o4)cc3)[nH]c2c1 [DB2137] | 31% |  |  |  |  | 102% | 
c1ccc(-c2ccc(-c3nc4ccc(C5=NCCN5)cc4[nH]3)s2)cc1 [DB953] | 53^f % |  |  |  |  | 134% | 
N=C(N)c1ccc(-c2ccc(-c3ccc(C(=N)N)cc3)o2)cc1 [DB075, furamidine] | 27% |  |  |  |  | 149% | 
c1ccc2[nH]c(-c3ccc(-c4ccc(C5=NCCN5)cc4)o3)nc2c1 [DB772, 2-(2-benzimidazolyl)-5-[4-(2-imidazolino)phenyl] furan dihydrochloride] |  | 800 ± 90 nM | 78% | 89% | 3.8 ± 0.9 µM | 96% | Inhibition of PrP^Sc accumulation [6]: nearly complete inhibition; Effect on PrP^C expression (total PrP) [7]: significant effect on PrP^C expression was not detected; Effect on PrP^C expression (PRNP transcripts) [8]: significant effect on PrP^C expression was not detected; Effect on cell proliferation (BrdU) over the 4-day treatment period [2]: significant effect on cell proliferation was not detected
N=C(N)c1ccc(-c2ccc(-c3nc4ccc(C(=N)N)cc4[nH]3)s2)cc1 [DB818A] | 74^f % | 460 ± 80 nM | 76% | 85% | > 3.16 µM | 170% | Stabilization of PrP^Sc against PK digestion [5]: significant stabilization of PrP^Sc was not detected
Cc1cc(C(=N)N)ccc1-c1ccc(-c2nc3ccc(C(=N)N)cc3[nH]2)o1 [DB850] | 11% |  |  |  |  | 154% | 
N=C(N)c1ccc(-c2ccc(-c3ccc(-c4nc5ccc(C(=N)N)cc5[nH]4)cc3)o2)nc1 [DB1264] | 68^f % | 390 ± 60 nM | 77% | 89% | > 3.16 µM | 138% | Selectivity index (CC50/TC-EC50) [1]: >8.1^e; Effect on cell proliferation (BrdU) over the 4-day treatment period [2]: significant effect on cell proliferation was not detected
N=C(N)c1ccc2nc(-c3ccc(-c4nc5ccc(C(=N)N)cc5[nH]4)s3)[nH]c2c1 [DB1033] | 81% and 81^d % | 580 ± 140 nM | 68% | 96% | > 3.16 µM | 91% | Effect on cell viability in dilution series [9]: failed to demonstrate any effect on cell viability; Selectivity index (CC50/TC-EC50) [1]: >5.4^e
N=C(N)c1ccc(-c2ccc(-c3nc4ccc(C(=N)N)cc4[nH]3)o2)cc1 [DB293] | 51^f % |  |  |  |  | 135% | 
N=C(N)c1ccc2nc(-c3ccc(-c4ccc(C(=N)N)c(F)c4)o3)[nH]c2c1 [DB989] | 26% |  |  |  |  | 126% | 
N=C(N)c1ccc2nc(-c3ccc(-c4ccc(C(=N)N)c(O)c4)o3)[nH]c2c1 [DB992] | 30% |  |  |  |  | 150% | 
c1ccc2[nH]c(-c3ccc(-c4ccc(C5=NCCN5)cc4)s3)nc2c1 [DB932A] | 70^f % | 390 ± 110 nM | 66% | 92% | 2.5 ± 0.3 µM | 81% | Stabilization of PrP^Sc against PK digestion [5]: significant stabilization of PrP^Sc was not detected
N=C(N)c1ccc2nc(-c3ccc(-c4ccc(-c5ccccc5)cc4)o3)[nH]c2c1 [DB1275] | 49^f % |  |  |  |  | 115% | 
Cn1c(-c2nc3ccc(C(=N)N)cc3[nH]2)ccc1-c1nc2ccc(C(=N)N)cc2[nH]1 [DB191] | 65^d % | 490 ± 140 nM | 74% | 88% | > 3.16 µM | 188% | Effect on cell viability in dilution series [9]: failed to demonstrate any effect on cell viability; Selectivity index (CC50/TC-EC50) [1]: >6.4^e
